What all share (type): cell-based
Assay [1] concerns Propionibacterium acnes NCTC 737. Nature of the assay: MBC assay. The following applies: P. acnes NCTC 737; for MBC: Cutibacterium acnes, NCTC737. The method, then:
(§1) The propionibacteria were cultured and maintained on Wilkins-Chalgren Anaerobe Medium (agar and broth) at pH 6.0; all cultures were incubated anaerobically at 37° C. for 72 hours.
(§2) This assay, normally carried out after an MIC assay, determines the minimum concentration of a compound that is lethal to the micro-organism being tested.
(§3) These samples were then individually sub-cultured on antibiotic-free agar medium, under the incubation conditions described above. Following incubation they were examined visually for microbial growth.

The test system is the same in assay [2]. Description: MIC assay. The following applies: Cutibacterium acnes, NCTC737; P. acnes NCTC 737. The method, then: as §1
(§4) This is a standard international method for quantitatively assessing the antimicrobial activity of a compound in a liquid medium. The method used a sterile 96-well microtitre plate, capable of holding about 200 μl of liquid per well. The wells contained liquid culture medium and ranges of decreasing concentrations of the relevant test compound in doubling dilutions (e.g. 1000, 500, 250, 125 . . . μg/ml, etc. down to 0.49 μg/ml). The culture media were as described above.
(§5) The wells were inoculated with a liquid suspension of freshly grown micro-organism and incubated under the conditions described above. After incubation, the microtitre plate was examined visually (with the aid of a light box) for cloudiness in each well, which would indicate microbial growth. The MIC value was recorded as the lowest concentration of test compound required to inhibit microbial growth, i.e. the lowest concentration for which the liquid in the well remained clear.
(§6) The assays included both negative (culture medium with no micro-organisms) and positive (culture medium plus diluting solvent plus micro-organism) controls.

In assay [3] the test system is Staphylococcus aureus ATCC 29213. Description: MBC assay. The following applies: S. aureus ATCC 29213; for MBC: Staphylococcus aureus, ATCC29213. On the procedure: (§7) The staphylococci were cultured and maintained on Mueller-Hinton Medium (agar and broth) at pH 7.2; cultures were incubated aerobically at 37° C. for 19-20 hours.
as §2, §3

The test system is the same in assay [4]. Nature of the assay: MIC assay. The following applies: ATCC29213, S. aureus ATCC 29213. The method, then:
as §7, §4, §5, §6

Assay [5] deals with Streptococcus sobrinus ATCC 33478. Description: MIC assay. The following applies: ATCC33478. On the procedure:
as §4, §5, §6

Assay [6] relates to Bacillus cereus ATCC 11778. Description: MIC assay. The following applies: ATCC11778, read-out: MIC. On the procedure:
as §4, §5, §6

In assay [7] the test system is Actinomyces naeslundii ATCC 12104. Nature of the assay: MIC assay. The following applies: ATCC12104, read-out: MIC. The method, then:
as §4, §5, §6

In assay [8] the test system is Listeria monocytogenes ATCC 15313. Nature of the assay: MIC assay. The following applies: ATCC15313, read-out: MIC. On the procedure: as §4, §5, §6
Assay [9] concerns Clostridium difficile ATCC 7000057. Nature of the assay: MIC assay. The following applies: Clostridioides difficile, ATCC7000057. The method, then:
as §4, §5, §6

In assay [10] the test system is Prevotella nigrescens ATCC 33563. Description: MIC assay. The following applies: ATCC33563. The method, then:
as §4, §5, §6

The subject of assay [11] is Clostridium sporogenes ATCC 3584. Description: MIC assay. The following applies: ATCC3584. On the procedure:
as §4, §5, §6

Assay [12] deals with Corynebacterium mucifaciens ATCC 700355. Description: MIC assay. The following applies: C. mucifaciens ATCC 700355. The method, then:
as §4, §5, §6

The subject of assay [13] is Streptococcus pyogenes ATCC 12344. Nature of the assay: MIC assay. The following applies: S. pyogenes ATCC 12344. The method, then: as §4, §5, §6
Assay [14] concerns Gardnerella vaginalis ATCC 14018. Nature of the assay: MIC assay. The following applies: ATCC14018. On the procedure: as §4, §5, §6
The test system of assay [15] is Enterococcus faecalis ATCC 29212. Description: MIC assay. The following applies: E. faecalis ATCC 29212. The method, then: as §4, §5, §6
The test system of assay [16] is Streptococcus mutans ATCC 25175. Nature of the assay: MBC assay. On the procedure:
(§8) The S. mutans strains were cultured and maintained on Wilkins-Chalgren Anaerobe Medium (agar and broth) at pH 7.0 supplemented with 1 g/L glucose; all cultures were incubated at 37° C. for 48 h in an atmosphere containing 5% CO2.
as §2, §3

Assay [17] has as its system Streptococcus mutans ATCC 35668. Nature of the assay: MBC assay. On the procedure:
as §8, §2, §3

For assay [18], the system named is Streptococcus sobrinus ATCC 33478. Description: MBC assay. On the procedure:
as §2, §3

Assay [19] relates to Bacillus cereus ATCC 11778. Description: MBC assay. On the procedure:
as §2, §3

For assay [20], the system named is Actinomyces naeslundii ATCC 12104. Description: MBC assay. The method, then: as §2, §3
Assay [21] concerns Listeria monocytogenes ATCC 15313. Description: MBC assay. On the procedure: as §2, §3
Assay [22] concerns Clostridium difficile ATCC 7000057. Description: MBC assay. On the procedure: as §2, §3
The test system of assay [23] is Prevotella nigrescens ATCC 33563. Nature of the assay: MBC assay. On the procedure:
as §2, §3

In assay [24] the test system is Clostridium sporogenes ATCC 3584. Description: MBC assay. The method, then:
as §2, §3

Assay [25] concerns Gardnerella vaginalis ATCC 14018. Nature of the assay: MBC assay. On the procedure:
as §2, §3

Assay [26] has as its system Porphyromonas gingivalis ATCC 53978. Description: MBC assay. On the procedure: (§9) The P. gingivalis strains were cultured and maintained on Wilkins-Chalgren Anaerobe Medium (agar and broth) at pH 7.0; all cultures were incubated anaerobically at 37° C. for 5-7 days.
as §2, §3

Assay [27] deals with Porphyromonas gingivalis NCTC 11834. Nature of the assay: MBC assay. The method, then: as §9, §2, §3
Assay [28] concerns Porphyromonas gingivalis ATCC BAA-308. Description: MBC assay. The method, then: as §9, §2, §3
For assay [29], the system named is Porphyromonas gingivalis ATCC 53978. Nature of the assay: MIC assay. The following applies: ATCC53978. On the procedure:
as §9, §4, §5, §6

For assay [30], the system named is Porphyromonas gingivalis NCTC 11834. Description: MIC assay. The following applies: NCTC11834. The method, then:
as §9, §4, §5, §6

Assay [31] relates to Porphyromonas gingivalis ATCC BAA-308. Description: MIC assay. The following applies: ATCCBAA308. On the procedure:
as §9, §4, §5, §6

Assay [32] has as its system Streptococcus mutans ATCC 25175. Description: MIC assay. The following applies: ATCC25175. On the procedure: as §8, §4, §5, §6
The subject of assay [33] is Streptococcus mutans ATCC 35668. Nature of the assay: MIC assay. The following applies: ATCC35668. The method, then:
as §8, §4, §5, §6

In brackets after ≈: the same amount, converted by molar mass.

A word on the MBC: it is the lowest tested concentration that kills the bacteria rather than only halting them. As usually defined, the MIC is the lowest concentration that inhibits growth of the organism. `CC(c1cc(C(C)(C)C)cc(C(C)(C)C)c1O)c1cc(C(C)(C)C)cc(C(C)(C)C)c1O` [2,2′-ethylidene-bis(4,6-di-tert-butylphenol), reference compound]: the minimal bactericidal concentration (MBC) in assay [1] and in assay [3] was over 250 µg/mL throughout. Besides, the minimum inhibitory concentration (MIC) in [2] and in [4] was over 250 µg/mL in each case.
As for `CC(C)(C)c1cc(Cc2cc(C(C)(C)C)c(O)c(C(C)(C)C)c2)cc(C(C)(C)C)c1O` [4,4′-methylenebis(2,6-di-tert-butylphenol), reference compound], the MBC in assay [1] and in assay [3] was over 250 µg/mL throughout. The MIC in assay [2] and in assay [4] was over 250 µg/mL throughout.
For the molecule `CCc1cc(Cc2cc(CC)cc(C(C)(C)C)c2O)c(O)c(C(C)(C)C)c1` [AO 425, 2,2′-methylene-bis(4-ethyl-6-tert-butylphenol)], the MIC in assay [5] is 31.2 µg/mL (≈ 84.8 µM); in assay [6] it was 1.95 µg/mL (≈ 5.29 µM); in assay [7], 0.98 µg/mL (≈ 2.66 µM); in assay [8] it was 0.98 µg/mL (≈ 2.66 µM); in assay [9], 7.8 µg/mL (≈ 21.2 µM); in assay [10] it was 15.6 µg/mL (≈ 42.3 µM). For the same molecule, the MIC in [11] was determined as 3.9 µg/mL (≈ 10.6 µM); in assay [14], 15.6 µg/mL (≈ 42.3 µM); in [2] it was 7.8 µg/mL (≈ 21.2 µM); in [29] it was 0.98 µg/mL (≈ 2.66 µM); in assay [30] it was 1.95 µg/mL (≈ 5.29 µM); in assay [31], 1.95 µg/mL (≈ 5.29 µM). The MIC stood at 15.6 µg/mL (≈ 42.3 µM) in [32], 7.8 µg/mL (≈ 21.2 µM) in assay [33] and 7.8 µg/mL (≈ 21.2 µM) in assay [4]. Further, the “activity compared with AO 2246” value in assay [12], in assay [13] and in [15] was “significantly lower activity” throughout. In addition, the MBC in assay [1] is 31.2 µg/mL (≈ 84.8 µM); in [16] (ATCC25175), 62.5 µg/mL (≈ 170 µM); in assay [17] (ATCC35668), over 250 µg/mL; in [18] (ATCC33478), 62.5 µg/mL (≈ 170 µM); in assay [19] (ATCC11778), 3.9 µg/mL (≈ 10.6 µM); in assay [20] (ATCC12104), 3.9 µg/mL (≈ 10.6 µM). Besides, the MBC in [21] (ATCC15313) is 7.8 µg/mL (≈ 21.2 µM); in assay [22] (Clostridioides difficile, ATCC7000057) it was 7.8 µg/mL (≈ 21.2 µM); in assay [23] (ATCC33563) it was over 15.6 µg/mL; in assay [24] (ATCC3584), 7.8 µg/mL (≈ 21.2 µM); in assay [25] (ATCC14018) it was 31.2 µg/mL (≈ 84.8 µM); in assay [3], 62.5 µg/mL (≈ 170 µM). Also, the MBC worked out at 0.98 µg/mL (≈ 2.66 µM) in [26] (ATCC53978, read-out: MBC); 1.95 µg/mL (≈ 5.29 µM) in [27] (NCTC11834); 3.9 µg/mL (≈ 10.6 µM) in [28] (ATCCBAA308). For the same molecule, the MIC/MBC Ratio in assay [1] is on record as 0.25; in [16], 0.25; in assay [17] it was under 0.03; in assay [18], 0.5; in assay [19], 0.5; in assay [20] it was 0.25. For the same molecule, the “MIC/MBC Ratio” value in [21] was 0.125; in assay [22] it was 1; in [23], under 1; in [24], 0.5; in assay [25], 0.5; in assay [3] it was 0.125. Besides, the “MIC/MBC Ratio” value in assay [26] worked out at 1; in assay [27] it was 1; in [28], 0.5.

These data come from patent publication US20100172854A1, “ANTIBACTERIAL FORMULATIONS” (priority 2007, published 2010).
